Measured values: patent publication US20030055263A1, “Carboxylic acid derivatives, medicaments comprising these compounds, their use and processes for their production” (Boehringer Ingelheim Pharma KG, priority 2001, published 2003)

Target: T1, telomerase in nuclear extracts from HeLa cells (Homo sapiens, UniProt O14746)
T1 construct: The activity of telomerase in nuclear extracts from HeLa cells; endogenous in cells; host or cells: HeLa-S3 (ATCC CCL-2.2) nuclear extract
Test: Telomerase test in nuclear extracts from HeLa cells (method of Morin)
Assay type: biochemical
Conditions: HeLa nuclear extract, 120 minutes at 30° C., inhibitor 1 nM to 100 μM, 32P-dGTP incorporation quantified by Phospho-Imager
Method: 1. Preparation of nuclear extracts from HeLa cells: Nuclear extracts were prepared according to Dignam (Dignam et al. in Nucleic Acids Res. 11, 1475-1489 (1983)). All the steps were carried out at 4° C., all the equipment and solutions were pre-cooled to 4° C. At least 1×10^9 HeLa-S3 cells growing in suspension culture (ATCC catalogue number CCL-2.2) were harvested by centrifuging for 5 minutes at 1000×g and washed once with PBS buffer ([…]; 2.7 mM KCl; 8.1 mM Na2HPO4; 1.5 mM KH2PO4) . After the cell volume had been determined, the cells were suspended in 5 times the volume of hypotonic buffer (10 mM HEPES/KOH, pH 7.8; 10 mM KCl; 1.5 mM MgCl2) and then left for 10 minutes at 4° C. After centrifuging for 5 minutes at 1000×g the cell pellet was suspended in twice the volume of hypotonic buffer in the presence of 1 mM DTE and 1 mM PMSF and broken up with a Dounce homogeniser. The homogenised material was made isotonic with 0.1 volume of 10-fold saline buffer (300 mM HEPES/KOH, pH 7.8; 1.4 M KCl; 30 mM MgCl2). The cell nuclei were separated from the ingredients of the cytoplasm by centrifuging and then suspended in twice the volume of nuclear extraction buffer (20 mM HEPES/KOH, pH 7.9; 420 mM KCl; 1.5 mM MgCl2; 0.2 mM EDTA; 0.5 mM DTE; 25% glycerol). The nuclei were broken up using a Dounce homogeniser and incubated for 30 minutes at 4° C. with gentle stirring. Any insoluble ingredients were removed by centrifuging for 30 minutes at 10.000 rpm (SS-34 Rotor). Then the nuclear extract was dialysed for 4-5 hours against AM-100 buffer (20 mM tris/HCl, pH 7.9; 100 mM KCl; 0.1 mM EDTA; 0.5 mM DTE; 20% glycerol). The nuclear extracts obtained were frozen in liquid nitrogen and stored at −80° C.
2. Telomerase test: The activity of telomerase in nuclear extracts from HeLa cells was determined using the method described by Morin (Morin in Cell 59. 521-529 (1989)). […] If the inhibition constant of potential telomerase inhibitors was to be determined, these were also added to the telomerase reaction in a concentration range of from 1 nM to 100 μM. […]

T1 sequence (O14746 whole entry): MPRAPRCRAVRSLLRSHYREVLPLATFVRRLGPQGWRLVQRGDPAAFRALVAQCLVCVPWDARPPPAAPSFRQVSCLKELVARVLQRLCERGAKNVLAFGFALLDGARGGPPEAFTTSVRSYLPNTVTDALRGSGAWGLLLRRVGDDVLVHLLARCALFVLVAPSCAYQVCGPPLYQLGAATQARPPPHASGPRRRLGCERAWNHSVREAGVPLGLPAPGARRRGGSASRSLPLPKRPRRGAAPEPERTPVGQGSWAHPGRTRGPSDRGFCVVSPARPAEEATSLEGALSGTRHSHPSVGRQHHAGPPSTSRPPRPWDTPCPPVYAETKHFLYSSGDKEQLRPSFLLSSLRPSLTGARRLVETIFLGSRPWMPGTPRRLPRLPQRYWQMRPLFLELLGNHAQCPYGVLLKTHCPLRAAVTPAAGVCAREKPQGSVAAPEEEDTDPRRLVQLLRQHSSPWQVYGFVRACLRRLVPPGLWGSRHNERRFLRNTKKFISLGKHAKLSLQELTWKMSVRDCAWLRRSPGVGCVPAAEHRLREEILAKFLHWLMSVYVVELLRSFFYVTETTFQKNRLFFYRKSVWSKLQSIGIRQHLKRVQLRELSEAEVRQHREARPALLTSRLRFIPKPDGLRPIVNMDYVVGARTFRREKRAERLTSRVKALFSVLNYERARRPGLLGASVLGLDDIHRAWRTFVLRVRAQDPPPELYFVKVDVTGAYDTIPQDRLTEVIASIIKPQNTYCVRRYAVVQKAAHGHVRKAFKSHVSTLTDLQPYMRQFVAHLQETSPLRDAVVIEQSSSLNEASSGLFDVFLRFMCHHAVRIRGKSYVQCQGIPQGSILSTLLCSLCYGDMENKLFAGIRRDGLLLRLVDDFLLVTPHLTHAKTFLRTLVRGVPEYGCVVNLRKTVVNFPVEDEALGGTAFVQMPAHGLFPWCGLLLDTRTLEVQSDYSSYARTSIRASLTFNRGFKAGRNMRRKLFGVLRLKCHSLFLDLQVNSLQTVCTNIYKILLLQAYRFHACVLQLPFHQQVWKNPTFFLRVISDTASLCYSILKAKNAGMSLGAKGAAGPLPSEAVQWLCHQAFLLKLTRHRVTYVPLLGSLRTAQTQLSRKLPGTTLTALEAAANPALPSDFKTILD
T1 sequence (O60832 whole entry partner): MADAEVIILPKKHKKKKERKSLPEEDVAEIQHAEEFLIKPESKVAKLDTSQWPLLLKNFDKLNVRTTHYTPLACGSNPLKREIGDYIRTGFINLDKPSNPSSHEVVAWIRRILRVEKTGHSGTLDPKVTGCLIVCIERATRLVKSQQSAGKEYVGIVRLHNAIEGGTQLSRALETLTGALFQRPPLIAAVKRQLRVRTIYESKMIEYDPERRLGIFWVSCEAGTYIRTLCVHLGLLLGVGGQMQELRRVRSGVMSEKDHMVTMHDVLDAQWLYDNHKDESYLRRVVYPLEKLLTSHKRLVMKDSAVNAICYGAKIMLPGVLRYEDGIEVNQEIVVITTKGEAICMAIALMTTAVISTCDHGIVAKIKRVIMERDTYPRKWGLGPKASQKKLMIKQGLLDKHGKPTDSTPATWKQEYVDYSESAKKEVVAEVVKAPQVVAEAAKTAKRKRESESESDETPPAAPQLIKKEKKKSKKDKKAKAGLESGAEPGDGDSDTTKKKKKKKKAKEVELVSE
T1 sequence (Q9NX24 whole entry partner): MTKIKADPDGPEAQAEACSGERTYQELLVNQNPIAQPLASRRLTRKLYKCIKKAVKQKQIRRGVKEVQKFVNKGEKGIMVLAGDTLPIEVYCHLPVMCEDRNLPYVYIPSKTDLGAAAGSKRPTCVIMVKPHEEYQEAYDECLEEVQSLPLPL
T1 sequence (Q9NPE3 whole entry partner): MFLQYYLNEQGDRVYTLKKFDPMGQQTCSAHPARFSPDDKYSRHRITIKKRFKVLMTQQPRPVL
T1 sequence (Q9NY12 whole entry partner): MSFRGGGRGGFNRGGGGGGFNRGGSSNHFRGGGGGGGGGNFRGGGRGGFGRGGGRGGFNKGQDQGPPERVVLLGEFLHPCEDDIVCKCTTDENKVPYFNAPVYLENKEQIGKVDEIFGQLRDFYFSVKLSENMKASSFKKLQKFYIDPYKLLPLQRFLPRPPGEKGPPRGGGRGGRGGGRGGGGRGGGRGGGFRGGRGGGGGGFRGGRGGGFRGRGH
T1 sequence (Q9BUR4 whole entry partner): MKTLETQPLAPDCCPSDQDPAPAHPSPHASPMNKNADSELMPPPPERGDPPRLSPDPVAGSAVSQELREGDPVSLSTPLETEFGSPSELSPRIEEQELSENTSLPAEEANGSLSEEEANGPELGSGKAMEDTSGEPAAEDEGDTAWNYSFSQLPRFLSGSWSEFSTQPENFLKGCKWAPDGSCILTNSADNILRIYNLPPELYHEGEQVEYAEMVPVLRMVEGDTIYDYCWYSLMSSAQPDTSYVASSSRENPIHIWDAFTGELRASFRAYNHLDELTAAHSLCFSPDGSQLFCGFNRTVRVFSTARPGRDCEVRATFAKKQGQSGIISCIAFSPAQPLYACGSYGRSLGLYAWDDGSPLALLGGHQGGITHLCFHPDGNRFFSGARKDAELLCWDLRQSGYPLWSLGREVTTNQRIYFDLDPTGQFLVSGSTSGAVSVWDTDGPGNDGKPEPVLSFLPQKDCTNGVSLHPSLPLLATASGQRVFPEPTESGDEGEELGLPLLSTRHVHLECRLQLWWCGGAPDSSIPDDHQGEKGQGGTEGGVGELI

Row | IC50 | SMILES
1 | < 5000 nM | O=C(O)c1ccccc1C(=O)Nc1nc(-c2ccc3ccccc3c2)cs1 [Example 3, 2-[4-(naphthalin-2-yl)-thiazol-2-ylaminocarbonyl]-benzoic acid]
2 | < 1000 nM | O=C(O)C1=C(C(=O)Nc2nc(-c3ccc4ccccc4c3)cs2)CCC1 [Example 35, 2-[4-(naphthalin-2-yl)-thiazol-2-ylaminocarbonyl]-cyclopent-1-ene-carboxylic acid]
3 | < 1000 nM | O=C(O)c1ccccc1Nc1nccc(-c2ccc3ccccc3c2)n1 [Example 50, 2-[4-(naphthalin-2-yl)-pyrimidin-2-ylamino]-benzoic acid]
